From US7612080B2, “GTPase inhibitors and use thereof for controlling platelet hyperactivity” (Cincinnati Children's Hospital Medical Center, priority 2004, dated 2009)

What was measured:
[1] = molecular target: T1, RhoA binding to PDZ-RhoGEF (Homo sapiens, UniProt P61586); test: Complex formation assay, RhoA with PDZ-RhoGEF
T1 construct: made in house; host or cells: Cos-7 cells (PDZ-RhoGEF, used as lysate)
Description: Trio and Tiam-1 co-precipitate with GST-Rac1, but not GST or GST-Cdc42.
After an incubation at 4° C. for 30 minutes, the beads associated (His)6-TrioN were detected by anti-His Western blotting. The blots were quantified by densitometry analysis. The results are representative of three measurements. […] The association of Rac1 with Tiam1 was examined by anti-His blot after anti-myc immunoprecipitation. […] The RhoA associated PDZ-RhoGEF was probed with anti-AU antibody after affinity precipitation by glutathione agarose beads.

[2] = molecular target: PDZ-RhoGEF-stimulated mantGDP/GTP exchange of RhoA (Homo sapiens, UniProt P61586); test: In vitro guanine nucleotide exchange assay (mant-GDP), RhoA/PDZ-RhoGEF; format: biochemical; settings: 200 μM compound
PDZ-RhoGEF-stimulated mantGDP/GTP exchange of RhoA, sequence (P61586 whole entry): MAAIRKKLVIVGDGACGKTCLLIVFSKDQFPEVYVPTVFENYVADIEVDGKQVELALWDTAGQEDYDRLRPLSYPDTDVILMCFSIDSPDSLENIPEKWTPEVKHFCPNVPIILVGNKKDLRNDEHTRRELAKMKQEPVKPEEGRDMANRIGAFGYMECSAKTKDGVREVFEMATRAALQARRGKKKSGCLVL

endogenous RhoA = molecular target: T2, endogenous RhoA (Mus musculus, UniProt Q9QUI0); test: Endogenous Rho GTPase activity assay (GST-Rhotekin pull-down), RhoA in NIH 3T3 cells; format: cell-based; settings: 10% serum
T2 construct: endogenous in cells; host or cells: NIH 3T3 fibroblasts
T2 sequence (Q9QUI0 whole entry): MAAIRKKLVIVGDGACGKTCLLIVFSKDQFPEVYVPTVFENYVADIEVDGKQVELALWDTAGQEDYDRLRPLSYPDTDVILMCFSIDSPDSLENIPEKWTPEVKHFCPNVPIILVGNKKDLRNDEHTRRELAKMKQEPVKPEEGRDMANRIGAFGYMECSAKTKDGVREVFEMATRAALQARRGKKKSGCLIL

NIH 3T3 cells = test: Cell growth assay of wild type, L61Rac1- or GEF-expressing NIH 3T3 cells; format: cell-based; settings: 100 μM compound
Text: The cells were split in triplicate in 6-well plates at a density of 5×10^4 cells per well. […] The foci numbers of the respective cells were quantified 14 days after transfection. […] The number and the morphology of the colonies were examined under a microscope.
Due to their ability to directly activate Rho GTPases, Db1 family GEFs are potent stimulators of cell proliferation.

platelets = test: Platelet adhesion, secretion and aggregation elicited by agonists; format: cell-based, mouse and human; settings: induced by ADP, PLC, U46619, collagen, thrombin, or phorbol ester
Text: In the studies disclosed hereinbelow, a dual approach of genetic targeting of Rac GTPases in mice and specific pharmacological inhibition of Rac GTPases in both mouse and human platelets was used to establish the central role of Rac GTPases in platelet function.
Treatment of mice with Compound NCI23766, Formula IV. […] This process was described above in the Experimental section of this document.

PC-3 cells [3] = test: Matrigel cell invasion assay; settings: 25 μM compound, 24 hrs
Description: Cell invasion assays. The cell invasion assays are performed using 6.4-mm Biocoat Matrigel invasion chambers with 8.0-micron pore size PET membrane (Becton-Dickinson) according to the manufactory instructions. Briefly, 5×10^4 cells are resuspended in 0.5 ml of serum free culture medium and added to the upper chamber. 10% fetal bovine serum in the culture medium is used as a chemo-attractant in the lower chamber. After the cells are incubated for overnight, the number of cell passed through the Matrigel is counted.
Cells invaded through Matrigel matrix were visualized with Giemasa staining.

PC-3 cells [4] = test: Anchorage independent growth in soft agar
PC-3 cells [5] = test: PC-3 cell proliferation (CellTiter 96 AQueous assay); settings: 5% calf serum, indicated concentrations
Description: Cell growth assay. […] The growth rate of the prostate PC-3 cells is measured by the CellTiter 96 AQueous assay (Promega). 1,500 cells/well in 200 μl of 5% FBS medium are plated in 96-well plates and are grown under normal conditions. Cultures are assayed in 0, 1, 2, 3, 4, or 5 days by the addition of 20 μl of the combined MTS/PMS solution followed by incubation for one hour at 37° C. Absorbency is measured at a wavelength of 490 nm on an automated microplate reader.
The cells were split in triplicate in 96-wells at 1.5×10^3 cells per well. Cell numbers were assayed by using CellTiter 96 AQueous cell proliferation assay kit in different days.

Swiss3T3 cells = test: Immunofluorescence of PDGF-stimulated lamellipodia formation; settings: 100 μM compound, 10 nM PDGF
Description: Immunofluorescence. […] The cellular actin is stained with TRITC-labeled phalloidin (Sigma) at 10 μg/ml in PBS for 40 min at room temperature. The actin and cell morphological changes are visualized by fluorescence microscopy.
The cells were fixed and stained with Rhodamine-labeled phalloidin.

T1 sequence (P61586 whole entry): as the sequence (P61586 whole entry) above

SMILES: CCN(CC)CCCC(C)Nc1nc(C)cc(Nc2ccc3nc(C)cc(N)c3c2)n1 (racemic) [Compound NCI23766, N6-(2-((4-(diethylamino)-1-methylbutyl)amino)-6-methyl-4-pyrimidinyl)-2-methyl-4,6-quinolinediamine]
- interference with RhoA binding to PDZ-RhoGEF [1]: does not interfere
- effect on PDZ-RhoGEF-stimulated mantGDP/GTP exchange of RhoA [2]: little impact
- level of RhoA-GTP in cells (endogenous RhoA): slightly increased level
- growth of wild type NIH 3T3 cells (NIH 3T3 cells; 5% serum): slow the growth
- growth rate of Rac1L61 expressing cells (NIH 3T3 cells; 5% serum): no effect
- cell growth induced by the Rac specific GEF Trio (NIH 3T3 cells; NIH 3T3, 5% serum): capable of inhibiting
- platelet adhesion (platelets): worked remarkably in inhibiting
- platelet aggregation (platelets): worked remarkably in inhibiting
- platelet secretion (platelets): worked remarkably in inhibiting
- PC-3 cell invasion (PC-3 cells [3]): significantly inhibits
- size of colonies of treated cells versus untreated (PC-3 cells [4]): much smaller
- colony-forming activities remaining (PC-3 cells [4]; 25 μM compound): Approximately 10%
- colony-forming activities remaining (PC-3 cells [4]; 50 μM compound): ~1%
- proliferation rates of PC-3 cells (PC-3 cells [5]): inhibited by Compound NCI23766 in a dose dependent manner
- PDGF induction of lamellipodia at the cell edges (Swiss3T3 cells; 5 min): only marginally effective
- PDGF induction of lamellipodia at the cell edges (Swiss3T3 cells; 10 min): completely ineffective
